Some test systems named below: SF-268 CNS; RPMI-8226 leukemia; OVCAR-4 ovarian; HCT-15 colon; SN12C renal; HOP-92 NSCLC; K-562 leukemia; OVCAR-3 ovarian; A498 renal.
Common to all, as to experiment: NCI tumour cell line growth inhibition, 48 h

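Dose response: 5 concentrations. Exposure: 48 h. Format: 96-well plates. Endpoint: linear interpolation; highest concentration if not reached. GI50: concentration for 50% inhibition of growth. TGI: concentration producing complete growth inhibition.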 A value given as a limit tells only on which side of the number the result lay.

For the compound `CCOC(=O)N1C2C=C(C)C(C3C(C)C(=O)N31)N(C(=O)c1ccccc1)O2` (centres undefined), the TGI in the assay on SF-268 CNS, in the assay with RPMI-8226 leukemia, in the assay on OVCAR-4 ovarian, in the assay on HCT-15 colon, in the assay with SN12C renal and in the assay with HOP-92 NSCLC was > 100 µM each time. Moreover, the TGI in the assay on K-562 leukemia, in the assay with OVCAR-3 ovarian and in the assay on A498 renal was > 100 µM in each case.
`CSc1nc(-c2ccccc2)c2c(n1)-c1ccccc1CC2`: the TGI in the assay with SF-268 CNS, with RPMI-8226 leukemia, in the assay with OVCAR-4 ovarian, in the assay with SN12C renal, with HOP-92 NSCLC and with K-562 leukemia was > 100 µM throughout. The TGI with OVCAR-3 ovarian and in the assay on A498 renal was > 100 µM in each case.
On to `N/N=C(\Cc1ccccc1)NN=C(N)N`, for which the TGI in the assay with SF-268 CNS, with RPMI-8226 leukemia, with OVCAR-4 ovarian, in the assay on HCT-15 colon, in the assay on SN12C renal and in the assay on HOP-92 NSCLC was > 100 µM each time. Besides, the TGI in the assay with K-562 leukemia and in the assay on A498 renal was > 100 µM throughout.
For the compound `O=C1c2ccccc2C(=O)C1C(c1ccc([N+](=O)[O-])cc1)C1C(=O)c2ccccc2C1=O`, the TGI in the assay with SF-268 CNS was 73.6 µM; in the assay on RPMI-8226 leukemia it was > 100 µM; in the assay with OVCAR-4 ovarian, > 100 µM; with HCT-15 colon it was > 100 µM; with SN12C renal it was > 100 µM; in the assay with HOP-92 NSCLC, > 100 µM. Moreover, the TGI in the assay on K-562 leukemia is > 100 µM; in the assay with OVCAR-3 ovarian, 34.1 µM.
As to `CCOc1ccc(NC(=O)CC2SC(N)=NC2=O)cc1` (centres undefined), the TGI in the assay with SF-268 CNS, in the assay with RPMI-8226 leukemia, with OVCAR-4 ovarian, with SN12C renal, with HOP-92 NSCLC and with OVCAR-3 ovarian was > 100 µM each time.
Turning to `COc1cc(Oc2c(O)c(C)c(OC)c(C(C)=O)c2O)c(C(C)=O)c(O)c1C`, the TGI in the assay with SF-268 CNS, in the assay on OVCAR-4 ovarian, in the assay with HCT-15 colon, in the assay on SN12C renal, in the assay with HOP-92 NSCLC and with OVCAR-3 ovarian was > 100 µM each time.
Turning to `COC(=O)[C@]1(C)CCC[C@@]2(C)C1CCC1=C[C@@]3(C(C)C)CC[C@]12OO3` (some centres undefined), the TGI with SF-268 CNS was 66.6 µM; with RPMI-8226 leukemia it was 47 µM; with OVCAR-4 ovarian, > 100 µM; in the assay with HCT-15 colon it was > 100 µM; with SN12C renal it was > 100 µM; in the assay on K-562 leukemia it was > 100 µM. The TGI with OVCAR-3 ovarian is > 100 µM; in the assay on A498 renal it was 67 µM.
As to `COc1ccc(COCC(Cn2ccnc2)OCc2ccc(C(=O)O)cc2)cc1` (centres undefined), the TGI in the assay on SF-268 CNS, in the assay on RPMI-8226 leukemia, in the assay on OVCAR-4 ovarian, with HCT-15 colon, in the assay with SN12C renal and in the assay with HOP-92 NSCLC was > 100 µM throughout. Also, the TGI in the assay on K-562 leukemia and in the assay with A498 renal was > 100 µM each time.
Consider `CC(=O)Oc1ccccc1C(=O)C1c2cccc(O)c2C(=O)c2c(O)cccc21`, for which the TGI was determined as 5.54 µM in the assay on SF-268 CNS; 2.48 µM in the assay with RPMI-8226 leukemia; 4.48 µM in the assay with OVCAR-4 ovarian; 9.56 µM with HCT-15 colon; 12.1 µM in the assay with SN12C renal; 3.76 µM in the assay with HOP-92 NSCLC. Also, the figures for the TGI with K-562 leukemia and in the assay with A498 renal were > 100 µM and 7.1 µM, respectively.
Take `COC(=O)C(Cc1nc2ccc(Cl)cc2[nH]c1=O)C(=O)C(=O)Nc1ccccc1[N+](=O)[O-]` (centres undefined): the TGI in the assay on SF-268 CNS, with RPMI-8226 leukemia, in the assay with OVCAR-4 ovarian, with HCT-15 colon, in the assay with SN12C renal and in the assay on K-562 leukemia was > 100 µM in each case. In addition, the TGI in the assay with OVCAR-3 ovarian and in the assay on A498 renal was > 100 µM each time.
With `CCOC(=O)/C(C#N)=C1\N[C@H](C(=O)OCC)CO1`, the TGI in the assay with SF-268 CNS, with RPMI-8226 leukemia, in the assay on OVCAR-4 ovarian, with HCT-15 colon, in the assay with SN12C renal and in the assay on K-562 leukemia was > 100 µM each time. In addition, the TGI in the assay with OVCAR-3 ovarian was > 100 µM.
For `CC(=O)NC(CCCN(Cc1ccccc1)C(=O)N(CCCl)N=O)C(=O)NCc1ccccc1` (centres undefined), the TGI was > 100 µM in the assay with SF-268 CNS; > 100 µM in the assay with RPMI-8226 leukemia; > 100 µM with OVCAR-4 ovarian; > 100 µM in the assay on HCT-15 colon; > 100 µM in the assay on SN12C renal; > 91.8 µM with HOP-92 NSCLC. Also, the TGI in the assay on K-562 leukemia was > 100 µM; in the assay on OVCAR-3 ovarian, > 100 µM; with A498 renal it was > 72 µM.
Consider `CC(CCCOC(c1ccccc1)(c1ccccc1)c1ccccc1)OC(=O)Nc1cc([N+](=O)[O-])cc([N+](=O)[O-])c1` (centres undefined), for which the TGI in the assay on SF-268 CNS, in the assay on RPMI-8226 leukemia, in the assay on OVCAR-4 ovarian, with HCT-15 colon, in the assay with SN12C renal and with K-562 leukemia was > 100 µM in each case. The TGI in the assay with OVCAR-3 ovarian is > 100 µM; in the assay on A498 renal, 72.3 µM.
For the compound `CC[CH2][Pb]([CH2]CC)([CH2]CC)[NH]S(=O)(=O)c1ccc(C)cc1`, the GI50 with SF-268 CNS is 0.035 µM; with RPMI-8226 leukemia, 0.0259 µM; with OVCAR-4 ovarian it was 0.0682 µM; in the assay with HCT-15 colon, 0.125 µM; in the assay with SN12C renal, 0.0681 µM; in the assay with HOP-92 NSCLC, 0.036 µM. Besides, the GI50 in the assay with OVCAR-3 ovarian is 0.024 µM; in the assay on A498 renal, 0.0215 µM. Also, the TGI with SF-268 CNS was 0.117 µM; in the assay on RPMI-8226 leukemia, 0.131 µM; with OVCAR-4 ovarian it was 0.307 µM; in the assay on HCT-15 colon it was 0.312 µM; with SN12C renal, 0.172 µM; in the assay with HOP-92 NSCLC, 0.161 µM. Moreover, the TGI was determined as 0.0625 µM with OVCAR-3 ovarian and 0.058 µM in the assay on A498 renal.
On to `FC(F)(F)C12C34C=CC5(CCC6(C=CC1(CC3)O6)C52C(F)(F)F)O4` (centres undefined), for which the TGI in the assay with SF-268 CNS, in the assay with OVCAR-4 ovarian, with SN12C renal, in the assay with HOP-92 NSCLC, with K-562 leukemia and in the assay with OVCAR-3 ovarian was > 100 µM each time. The TGI in the assay on A498 renal was > 100 µM.

Source of the values: PubChem BioAssay (NCI).
